Reference: patent publication US20230406865A1, “CRYSTAL FORM OF FREE BASE OF INHIBITOR CONTAINING BICYCLIC RING DERIVATIVE AND PREPARATION METHOD AND APPLICATION OF CRYSTAL FORM” (SHANGHAI HANSOH BIOMEDICAL CO., LTD., priority 2020, published 2023)
≈ marks a conversion by molar mass, not a printed value. Where two headings read alike, the source gives them in different places.

Key:
[1] = Solid stability of crystal form I (HPLC impurities); type: physicochemical; details: 14 days
Method: To investigate the physical and chemical stability of the compound under light 5000 lx, high temperature 60° C., high humidity 92.5% RH, high temperature and high humidity 50° C./75% RH conditions to provide a basis for the storage of the compound.
[…] 5000 lx, high temperature 60° C., high humidity 92.5% RH, high temperature and high humidity 50° C./75% RH, and the content was determined by HPLC with external standard method, and the changes of the related substances were calculated by the area normalization method for chromatographic peak.

[2] = Thermodynamic solubility in different media at 37° C.; type: physicochemical; details: thermodynamic from solid, read-out: Solubility of crystal form I
Method: To compare the solubility of the crystal form I of the free base in pH 1-8 USP buffer, artificial simulated gastric fluid (FaSSGF), fasting artificial simulated intestinal fluid (FaSSIF), non-fasting artificial simulated intestinal fluid (FeSSIF) and pure water and other medium to provide a basis for the assessment of druggablitity.
About 1 mg of the crystal form I of the free base was mixed and suspended in different mediums for 4 hours.

[3] = Hygroscopicity (DVS) of crystal form I; type: physicochemical
Method: The crystal form I of the free base of the compound was placed in the saturated water vapor at the […] relative humidity to make the compound reach dynamic equilibrium with the water vapor, and the percentage of hygroscopic weight gain of the compound was calculated after equilibrium.

KIF5B-RET = target: T1, KIF5B-RET (Homo sapiens, UniProt P07949); test: HTRF kinase activity inhibition, KIF5B-RET; type: biochemical; details: ATP at Km
T1 construct: purchased SignalChem R02-19FG-05; the other entry of the earlier key: KIF5B (P33176, Kinesin-1 heavy chain)
T1 sequence (P07949 with tags, fused parts or gaps): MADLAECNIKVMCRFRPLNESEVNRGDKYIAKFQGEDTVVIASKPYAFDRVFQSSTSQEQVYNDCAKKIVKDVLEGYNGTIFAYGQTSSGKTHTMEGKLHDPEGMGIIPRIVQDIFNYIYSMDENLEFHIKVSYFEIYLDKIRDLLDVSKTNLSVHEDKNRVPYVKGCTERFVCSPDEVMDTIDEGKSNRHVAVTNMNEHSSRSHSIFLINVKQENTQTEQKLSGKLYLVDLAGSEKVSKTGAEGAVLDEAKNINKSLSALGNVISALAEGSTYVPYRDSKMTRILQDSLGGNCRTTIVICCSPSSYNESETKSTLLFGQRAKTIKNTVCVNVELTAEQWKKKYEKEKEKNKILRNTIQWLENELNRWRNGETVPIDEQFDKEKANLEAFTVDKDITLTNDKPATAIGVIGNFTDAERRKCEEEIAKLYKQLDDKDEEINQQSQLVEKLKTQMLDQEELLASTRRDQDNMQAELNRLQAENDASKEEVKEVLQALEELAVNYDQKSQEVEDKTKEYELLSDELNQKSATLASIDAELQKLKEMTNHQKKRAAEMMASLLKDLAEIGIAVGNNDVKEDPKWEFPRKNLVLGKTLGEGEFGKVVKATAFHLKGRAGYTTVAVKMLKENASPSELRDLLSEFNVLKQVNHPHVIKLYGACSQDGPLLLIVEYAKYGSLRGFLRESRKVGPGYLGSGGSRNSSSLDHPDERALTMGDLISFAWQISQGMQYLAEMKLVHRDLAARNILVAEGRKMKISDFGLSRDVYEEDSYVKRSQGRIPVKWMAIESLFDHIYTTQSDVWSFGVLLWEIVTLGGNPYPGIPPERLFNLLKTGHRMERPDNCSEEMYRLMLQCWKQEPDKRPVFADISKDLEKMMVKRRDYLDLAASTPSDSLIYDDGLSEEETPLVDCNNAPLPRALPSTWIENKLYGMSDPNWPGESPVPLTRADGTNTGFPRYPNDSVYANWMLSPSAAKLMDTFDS
Source text: (§1) 2.2 Experimental Reagents: • RET enzyme was purchased from Carna Company, and the article number was 08-159; • RET M918T enzyme was purchased from Carna Company, and the article number was 08-508; • KIF5B-RET was purchased from SignalChem Company, the article number was R02-19FG-05; • CCDC6-RET was purchased from SignalChem Company, the article number was R02-19BG-05; • RET V804M enzyme was purchased from Thermofisher Company, and the article number was PV6223; • RET V804L enzyme was purchased from Thermofisher Company, and the article number was PV4397; • HTRF KinEASE-TK kit was purchased from Cisbio Company, and the article number was 62TK0PEC; • ATP was purchased from Thermofisher Company, and the article number was PV3227; • 384-well plate was purchased from PerkinElmer Company, and the article number was 6007290.
(§2) In this experiment, a homogeneous time-resolved fluorescence (HTRF) method was used for the detection of compounds on RET kinase activity.

RET V804M = target: T2, RET V804M (Homo sapiens, UniProt P07949, V804M); test: HTRF kinase activity inhibition, RET V804M; type: biochemical; details: ATP at Km
T2 construct: purchased Thermofisher PV6223
T2 sequence (P07949 29-1114 V804M): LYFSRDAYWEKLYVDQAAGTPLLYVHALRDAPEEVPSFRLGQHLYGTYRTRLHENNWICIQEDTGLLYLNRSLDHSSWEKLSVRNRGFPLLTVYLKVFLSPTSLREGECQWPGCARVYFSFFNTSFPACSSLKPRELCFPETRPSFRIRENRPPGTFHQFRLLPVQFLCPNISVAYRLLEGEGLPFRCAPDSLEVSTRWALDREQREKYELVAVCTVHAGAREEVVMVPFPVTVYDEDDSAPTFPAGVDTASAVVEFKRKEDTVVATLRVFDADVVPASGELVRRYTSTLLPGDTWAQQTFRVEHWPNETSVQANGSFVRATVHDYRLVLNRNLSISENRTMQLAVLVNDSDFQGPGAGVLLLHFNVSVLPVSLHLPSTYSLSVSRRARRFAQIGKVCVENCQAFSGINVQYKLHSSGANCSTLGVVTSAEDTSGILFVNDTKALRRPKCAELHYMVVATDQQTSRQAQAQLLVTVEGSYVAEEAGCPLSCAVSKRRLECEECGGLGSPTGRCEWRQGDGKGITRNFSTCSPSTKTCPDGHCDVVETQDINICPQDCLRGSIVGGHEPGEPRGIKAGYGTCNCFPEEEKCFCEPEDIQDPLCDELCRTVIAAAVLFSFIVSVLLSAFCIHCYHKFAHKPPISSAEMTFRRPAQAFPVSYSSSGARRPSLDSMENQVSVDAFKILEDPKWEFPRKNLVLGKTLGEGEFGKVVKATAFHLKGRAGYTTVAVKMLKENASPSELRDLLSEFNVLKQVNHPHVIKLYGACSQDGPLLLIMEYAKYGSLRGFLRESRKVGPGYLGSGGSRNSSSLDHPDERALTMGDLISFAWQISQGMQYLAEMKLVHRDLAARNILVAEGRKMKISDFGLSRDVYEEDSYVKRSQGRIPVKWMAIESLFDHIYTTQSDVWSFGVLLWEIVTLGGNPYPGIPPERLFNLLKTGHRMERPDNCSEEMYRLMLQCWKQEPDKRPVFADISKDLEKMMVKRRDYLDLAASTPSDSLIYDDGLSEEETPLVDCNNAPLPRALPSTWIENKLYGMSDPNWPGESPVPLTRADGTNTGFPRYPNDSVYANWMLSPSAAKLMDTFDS
Source text: as §1, §2

RET M918T = target: T3, RET M918T (Homo sapiens, UniProt P07949, M918T); test: HTRF kinase activity inhibition, RET M918T; type: biochemical; details: ATP at Km
T3 construct: purchased Carna 08-508
T3 sequence (P07949 29-1114 M918T): as the sequence (P07949 29-1114 V804M) above, with M776V, M890T counted along it
Source text: as §1, §2

RET V804L = target: T4, RET V804L (Homo sapiens, UniProt P07949, V804L); test: HTRF kinase activity inhibition, RET V804L; type: biochemical; details: ATP at Km
T4 construct: purchased Thermofisher PV4397
T4 sequence (P07949 29-1114 V804L): as the sequence (P07949 29-1114 V804M) above, with M776L counted along it
Source text: as §1, §2

CCDC6-RET = target: T5, CCDC6-RET (Homo sapiens, UniProt P07949); test: HTRF kinase activity inhibition, CCDC6-RET; type: biochemical; details: ATP at Km
T5 construct: purchased SignalChem R02-19BG-05; the other entry of the earlier key: CCDC6 (Q16204, Coiled-coil domain-containing protein 6)
T5 sequence (P07949 with tags, fused parts or gaps): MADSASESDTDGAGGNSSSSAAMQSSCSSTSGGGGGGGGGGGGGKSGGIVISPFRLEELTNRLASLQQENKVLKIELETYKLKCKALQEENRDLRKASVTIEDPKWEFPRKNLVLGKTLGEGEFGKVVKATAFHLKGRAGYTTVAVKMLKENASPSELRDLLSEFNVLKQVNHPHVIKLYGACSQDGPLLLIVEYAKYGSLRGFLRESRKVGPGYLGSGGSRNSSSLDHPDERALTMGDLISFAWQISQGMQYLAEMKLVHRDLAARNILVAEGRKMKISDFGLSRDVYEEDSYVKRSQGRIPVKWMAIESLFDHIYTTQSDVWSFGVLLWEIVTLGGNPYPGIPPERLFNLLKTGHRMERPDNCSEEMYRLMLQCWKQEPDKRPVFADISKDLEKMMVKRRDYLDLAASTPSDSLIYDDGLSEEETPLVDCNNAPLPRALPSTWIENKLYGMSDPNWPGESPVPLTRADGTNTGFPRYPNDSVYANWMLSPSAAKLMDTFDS
Source text: as §1, §2

[4] = High temperature and high humidity/50° C./75% RH

## C#C[C@@](C)(O)COc1cc(-c2ccc(N3CC4CC(C3)N4Cc3ccc(OC)nc3)nc2)c2c(C#N)cnn2c1 [crystal form I, 6-(((R)-2-hydroxy-2-methylbut-3-yn-1-yl)oxy)-4-(6-(6-((6-methoxypyridin-3-yl)methyl)-3,6-diazabicyclo[3.1.1]heptan-3-yl)pyridin-3-yl)pyrazolo[1,5-a]pyridine-3-carbonitrile]
[1]; High humidity/92.5% RH
  Increase of total impurities %: <0.02%
  Maximum increase of single impurity %: <0.02%
[1]; [4]
  Increase of total impurities %: <0.02%
  Maximum increase of single impurity %: 0.11%
[1]; High temperature/60° C.
  Increase of total impurities %: <0.02%
  Maximum increase of single impurity %: 0.06%
[1]; Light/5000 lx
  Increase of total impurities %: <0.02%
  Maximum increase of single impurity %: 0.18%
[2]; FaSSGF (artificial simulated gastric fluid), fassgf or other biorelevant, FaSSGF, 37° C.
  solubility at 4 h: > 2000 µg/mL
[2]; FaSSIF (fasting artificial simulated intestinal fluid), FaSSIF, 37° C.
  solubility at 4 h: 1 µg/mL (≈ 1.87 µM)
[2]; FeSSIF (non-fasting artificial simulated intestinal fluid), FeSSIF, 37° C.
  solubility at 4 h: 90 µg/mL (≈ 168 µM)
[2]; USP buffer pH 1, simulated gastric fluid, pH 1, 37° C.
  solubility at 4 h: > 2000 µg/mL
[2]; USP buffer pH 2, simulated gastric fluid, pH 2, 37° C.
  solubility at 4 h: > 2000 µg/mL
[2]; USP buffer pH 3, aqueous buffer, pH 3, 37° C.
  solubility at 4 h: 710 µg/mL (≈ 1330 µM)
[2]; USP buffer pH 4, aqueous buffer, pH 4, 37° C.
  solubility at 4 h: 370 µg/mL (≈ 691 µM)
[2]; USP buffer pH 5, aqueous buffer, pH 5, 37° C.
  solubility at 4 h: 20 µg/mL (≈ 37.3 µM)
[2]; USP buffer pH 6, aqueous buffer, pH 6, 37° C.
  solubility at 4 h: 1 µg/mL (≈ 1.87 µM)
[3]; RH80%, 25° C.
  hygroscopic weight gain: about 0.43%
  hygroscopicity: slightly hygroscopicity
[3]; two cycles at 0-95% RH
  XRPD pattern / crystal form after moisture absorption and desorption: the crystal form has not transformed

## CC1(NC(=O)c2ncccc2Cl)CCN(c2ccc(-c3cc(C#CC4(O)COC4)cn4ncc(C#N)c34)cn2)CC1 [Embodiment 97, 3-Chloro-N-(1-(5-(3-cyano-6-((3-hydroxyoxetan-3-yl)ethynyl)pyrazolo[1,5-a]pyridin-4-yl)pyridin-2-yl)-4-methylpiperidin-4-yl)picolinamide]
KIF5B-RET
  IC50: 0.5 nM
RET V804M
  IC50: 1.1 nM
RET M918T
  IC50: 0.37 nM
RET V804L
  IC50: 0.28 nM
CCDC6-RET
  IC50: 1.72 nM
